Like-named read-outs stand apart in the source and are kept apart here.
Assays:
[1] = acidic environment; data not shown
[2] = cited from earlier work

Solubility [1]: higher in an acidic environment
Compound: C=CC(=O)N1CCC[C@@H](n2nc(-c3ccc(Oc4ccccc4)cc3)c3c(N)ncnc32)C1 [ibrutinib, 1-(3R)-3-(4-amino-3-(4-phenoxyphenyl)-1H-pyrazolo[3,4-d]pryimidin-1-yl)prop-2-en-1-one]
Solubility ([2]; HCl at pH 1.2): slightly soluble
Solubility ([2]; aqueous solutions of pH 4.5-8): practically insoluble

— patent US11433072B1 (Hikma Pharmaceuticals USA Inc., priority 2021, dated 2022)
